Where two headings read alike, the source gives them in different places.
How the values were obtained:
[1] = test system: patients with active severe rheumatoid arthritis; details: for Serum C-reactive protein: normal reference range <10 mg/l; for Rheumatoid factor: normal reference range <14 IU/ml
Experimental: If grade 3 or 4 toxicity occurs at the dose of 200 mg/day, the patient is removed from the study.
On each visit complete physical check up is performed (including blood pressure, pulse, body weight) and the following parameters will be assessed:
The oral glucocorticoid dose is required to be 15 mg or less of prednisone or equivalent.
A dose-escalation scheme is used. The starting dose is 200 mg per day for 2 weeks given as one 100 mg capsule taken in the morning and another in the afternoon.
The injected joints were omitted from efficacy analyses.
The primary efficacy measures were: change in the number of tender and swollen joints among the 66 diarthrodial joints, patient assessed pain and disease activity as estimated using the visual analogue scales (VAS), change in the blood erythrocyte sedimentation rate (ESR) and the serum C-reactive protein (CRP) level, and change in the health assessment questionnaire (HAQ) score. […] Serum CRP and blood ESR are measured prior to the study and on the study weeks 2, 4, 8, and 12.

For `CS(=O)(=O)O.Cc1ccc(NC(=O)c2ccc(CN3CCN(C)CC3)cc2)cc1Nc1nccc(-c2cccnc2)n1` [SALT I], the RA status (patient with severe RA; January 2003, 400 mg daily, prior RA medication discontinued) was “still in remission”, the “occasional macroscopic hematuria (RA-associated glomerulonephritis)” value (patient with severe RA; Jun. 14, 2001) was “had ceased” and the “patient-reported RA condition” value (patient with severe RA; Jun. 14, 2001, 400 mg/day, prednisone reduced to 5 mg o.d.) was “further subjective improvement of their RA”. For the same molecule, the RA status (patient with severe RA; September 2001) was “still in remission”, the RA condition (patient with severe RA; after 2 and 5 months of treatment, with prednisone 5 mg/day) was “further major improvements” and the patient-reported general condition (patient with severe RA; after several days, with prednisone 5 mg/day, 600 mg then 400 mg/day orally) was “improved joint motility and decrease of wrist swelling”. For the same molecule, the “patient-reported RA condition” value (patient with severe RA; control visit April 17, 600 mg/day for nine days, pause, then 400 mg/day from April 11) was “improved joint motility and decreased swelling particularly in the wrists”, the “anti-rheumatic effect, duration” value ([1]; 2 patients who completed the 12-week study) was “sustained during the study period” and the “outcome measures during SALT I therapy (overall)” value ([1]; 3 patients, 200 to 400 mg/day, up to 12 weeks) was “All outcome measures improved”. The HAQ ([1]; Patient 1, week 8, baseline 1.75) was 1.5, the “Serum C-reactive protein” value ([1]; Patient 1, week 8, baseline 10) was 11 mg/L and the Erythrocyte sedimentation rate ([1]; Patient 1, week 8, baseline 38) was 23 mm/h. The “Patient-assessed disease activity (VAS)” value ([1]; Patient 1, week 8, baseline 77) was 39 mm, the “Pain (VAS)” value ([1]; Patient 1, week 8, baseline 79) was 42 mm and the Rheumatoid factor ([1]; Patient 1, week 8, baseline 197) was 65 IU/ml. For the same molecule, the HAQ ([1]; Patient 2, week 12, baseline 1.75) was 0.75, the “Serum C-reactive protein” value ([1]; Patient 2, week 12, baseline 36) was 12 mg/L and the “Pain (VAS)” value ([1]; Patient 2, week 12, baseline 77) was 26 mm. The “Patient-assessed disease activity (VAS)” value ([1]; Patient 2, week 12, baseline 96) was 35 mm, the Rheumatoid factor ([1]; Patient 2, week 12, baseline 501) was 270 IU/ml and the Erythrocyte sedimentation rate ([1]; Patient 2, week 12, no baseline value) was 13 mm/h. For the same molecule, the HAQ ([1]; Patient 3, week 12, baseline 1.5) was 1.1, the Erythrocyte sedimentation rate ([1]; Patient 3, week 12, baseline 28) was 12 mm/h and the “Pain (VAS)” value ([1]; Patient 3, week 12, baseline 37) was 22 mm. For the same molecule, the “Serum C-reactive protein” value ([1]; Patient 3, week 12, baseline 42) was 10 mg/L, the “Patient-assessed disease activity (VAS)” value ([1]; Patient 3, week 12, baseline 69) was 23 mm and the Morning stiffness ([1]; Patient no. 1, during the study, from 45 min) was “none”. The “blood erythrocyte sedimentation rate” value ([1]; Patient no. 3, 24 weeks) was 17 mm/h, the “duration of the morning stiffness” value ([1]; Patient no. 3, 24 weeks) was 30 min and the “serum CRP level” value ([1]; Patient no. 3, 24 weeks) was 9 mg/L. The “serum rheumatoid factor level” value ([1]; Patient no. 3, 24 weeks) was 139 IU/ml, the “number of swollen joints” value ([1]; Patient no. 3, 24 weeks, 400 mg o.d.) was 15 and the Morning stiffness ([1]; Patient no. 3, during the study (12 weeks), from 180 min) was 75 min. For the same molecule, the “response of rheumatoid arthritis to treatment” value ([1]; all 3 patients) was “responded favorably” and the “joint pain reported by all patients” value ([1]; first week of treatment, subsided below baseline during second study week) was “increased joint pain”.

Source: patent US20060264443A1, “Treatment of rheumatoid arthritis” (priority 2002, published 2006)
